For one molecule, kon and Kd results are on record in PMC2752443 (2009).

Test [1] deals with theophylline-binding RNA aptamer (RNA, aptamer) GGCGAUACCAGCCGAAAGGCCCUUGGCAGCGUC
Nature of the test: 2D 1H-1H NMR ZZ-exchange. Particulars: no Mg2+; 15 °C; apparent; slope of kf against free theophylline.

Test [2] shares this test system. Nature of the test: 2D 1H-1H NMR ZZ-exchange, koff/kon. Particulars: no Mg2+; 15 °C; from apparent rate constants.

One may read the kon as the rate constant with which the complex forms. Turning to `Cn1c(=O)c2[nH]cnc2n(C)c1=O`, the kon in test [1] worked out at 600 ± 57 M⁻¹ s⁻¹. The Kd in test [2] worked out at 2500 µM.
